Results as given in article PMC6100724, “Proteome‐wide analysis of phospho‐regulated PDZ domain interactions” (Molecular Systems Biology, 2018).
Values belong to the sequence of their own block, whether it stands above or below them.

What was measured:
Experiment in all cases: Phosphomimetic ProP-PD selection with NGS
[1] = target: T1, DLG1 PDZ2 (Homo sapiens, UniProt Q12959); type: binding; conditions: mean of selections 1-3, bait DLG1 PDZ2
T1 construct: human DLG1 PDZ2 aa 311–407 in a modified pRSET vector 40; made in house; host or cells: E. coli BL21 Gold (DE3)
Description: (§1) Phage selections were carried out for four rounds following a protocol by Huang and Sidhu (Huang & Sidhu, 2011) with minor modifications. Non‐specific binding phage was removed by pre‐selections against immobilized GST throughout the selection. The selections against the (pre‐)phosphorylated wild‐type library were performed in 50 mM HEPES (pH 7.4) and 150 mM NaCl (HBS) following the same procedure after pre‐phosphorylation of the library.
(§2) • Immobilize proteins (15 μg in 100 μl PBS) in a 96‐well MaxiSorp microtiter plate (NUNC) overnight at 4°C. • Start a 2YT culture of E. coli Omnimax supplemented with 100 μg/ml tetracycline to retain the F pilus epitope. • Block the wells with 200 μl 0.5% BSA in PBS for 2 h at 4°C. • Precipitate naïve phage library (10^11 cfu per selection) or amplified phage pool from the previous round of selection by adding one‐fifth the volume of PEG/NaCl. • Incubate on ice for 10 min, and pellet precipitated phage by centrifugation at 5,300 g for 15 min. Resuspend the phage pellet in 100 μl PBS per selection. • Add 100 μl of phage solution to the GST‐coated pre‐selection wells and incubate for 1 h. • Transfer the phage solution to the immobilized target proteins and allow it to bind for 2 h at 8°C. • Wash the plate four times with 200 μl cold wash buffer (PBS, 0.05% Tween‐20). • Elute bound phage by incubation with 100 μl log phase (0.6–0.8 OD600) E. coli Omnimax for 30 min at 37°C with shaking (200 RPM). • Add 10^12 cfu/ml M13K07 helper phage for hyperinfection of the bacteria and incubate as above for 45 min. • Transfer the bacterial culture to 10 ml 2YT supplemented with 50 μg/ml carbenicillin, 25 μg/ml kanamycin, and 300 μM IPTG and incubate overnight at 37°C while shaking. • Perform phage pool ELISA to monitor the progress of the selection as described previously (Huang & Sidhu, 2011).
(§3) The naïve library and the enriched phage pools of the third day of selection were amplified and barcoded by PCR and analyzed by NGS as described elsewhere (McLaughlin & Sidhu, 2013; Ivarsson et al, 2014). The reads were demultiplexed using the barcode sequences and filtered by discarding sequences with a Phred quality score under 30. Sequences were mapped to the original library using Bowtie (Langmead et al, 2009) with two mismatches between reads and library sequence. Nucleotide mutations leading to amino acid substitutions were subsequently removed. Cutoff values of NGS counts were assigned for each pool. PWMs were generated based on the remaining peptides (aligned on the C‐termini) using WebLogo (Crooks et al, 2004).
(§4) However, there was no significant correlation of the actual read counts (selection “strength”) and the initial representation in the library, reflecting the strong selection during phage display (wt+mimetic: P‐value: 0.49, ρ = −0.08, mimetic only: P‐value: 0.069, ρ = −0.2, wt only: P‐value: 0.12, ρ = 0.17). Consequently, the amount of reads for each binder after phage display is not a function of the amount of input reads in the naïve library and no modeling based on the input library frequencies to score the interactions is necessary. To allow for comparison between replicate selections, we used the fraction of NGS reads within a certain set, instead of the absolute number of NGS reads, as the absolute numbers differ between different NGS batches.

[2] = test system: DLG1 PDZ1; type: binding, human; conditions: mean of selections 1-3, bait DLG1 PDZ1; for Mean fraction #NGS counts mimetic peptide / total count selection: phosphomimetic peptide; for Mean fraction #NGS counts wt peptide / total counts selection: wild type peptide
Description: as §1, §2, §3, §4

[3] = test system: Scribble PDZ2; type: binding, human; conditions: bait Scribble PDZ2
Description: as §1, §2, §3, §4

[4] = test system: Scribble PDZ3; type: binding, human; conditions: bait Scribble PDZ3
Description: as §1, §2, §3, §4

[5] = target: T2, Scribble PDZ1 (Homo sapiens, UniProt Q14160); type: binding; conditions: bait Scribble PDZ1; mean of selections 1-3
T2 construct: human Scribble PDZ1 aa 719–829 in; made in house; host or cells: E. coli BL21 Gold (DE3)
Description: as §1, §2, §3, §4

[6] = mean of selections 1 and 2 (selection 3 empty)

T1 sequence (Q12959 311-407): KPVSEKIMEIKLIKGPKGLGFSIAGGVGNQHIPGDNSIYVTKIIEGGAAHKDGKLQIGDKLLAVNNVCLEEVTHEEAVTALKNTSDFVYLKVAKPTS
T2 sequence (Q14160 719-829): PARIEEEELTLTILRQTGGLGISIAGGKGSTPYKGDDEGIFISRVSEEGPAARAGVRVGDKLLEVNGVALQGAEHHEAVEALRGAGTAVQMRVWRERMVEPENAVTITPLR

Sequence: VVSERIESV
- Mean fraction #NGS counts mimetic peptide / total count selection [3, 6]: 0.0001899

Sequence: SSGHTSTTL
- Mean fraction #NGS counts wt peptide / total counts selection [2]: 0

Sequence: SEGHTSTTL
- Mean fraction #NGS counts mimetic peptide / total count selection [2]: 5.924e-6

Sequence: EEREVTTYL
- Mean fraction #NGS counts mimetic peptide / total count selection [5]: 0.0003719
- Mean fraction #NGS counts mimetic peptide / total count selection [2]: 3.309e-5
- Mean fraction #NGS counts mimetic peptide / total count selection ([4]; mean over selections 1-3): 0.000214

Sequence: SQSRMSTNM
- Mean fraction #NGS counts wt peptide / total counts selection [3, 6]: 0
- Mean fraction #NGS counts wt peptide / total counts selection ([4]; mean over selections 1-3): 0

Sequence: KYDKELEPV
- Mean fraction #NGS counts mimetic peptide / total count selection [2]: 0.003147

Sequence: YPGEPDSWV
- Mean fraction #NGS counts mimetic peptide / total count selection [3, 6]: 0

Sequence: KYDKELTPV
- Mean fraction #NGS counts wt peptide / total counts selection [2]: 1.185e-6

Sequence: SQERMETNM
- Mean fraction #NGS counts mimetic peptide / total count selection [3, 6]: 0.007678
- Mean fraction #NGS counts mimetic peptide / total count selection ([4]; mean over selections 1-3): 0.0002907

Sequence: ASSPGGTVV
- Mean fraction #NGS counts wt peptide / total counts selection [2]: 2.813e-5

Sequence: RSRSISTDV
- Mean fraction #NGS counts wt peptide / total counts selection [1]: 0.02018
- Mean fraction #NGS counts wt peptide / total counts selection [5]: 0.0001844
- Mean fraction #NGS counts wt peptide / total counts selection [3, 6]: 0.001899
- Mean fraction #NGS counts wt peptide / total counts selection ([4]; mean over selections 1-3): 0.0004544

Sequence: TSLTWISTL
- Mean fraction #NGS counts wt peptide / total counts selection [3, 6]: 0

Sequence: VVHTPETSV
- Mean fraction #NGS counts wt peptide / total counts selection [1]: 3.877e-6
- Mean fraction #NGS counts wt peptide / total counts selection [5]: 7.859e-5
- Mean fraction #NGS counts wt peptide / total counts selection ([3]; mean over selections): 0
- Mean fraction #NGS counts wt peptide / total counts selection ([4]; mean of selections 1-3, wild type peptide): 6.402e-5

Sequence: YPGSPDEWV
- Mean fraction #NGS counts mimetic peptide / total count selection [3, 6]: 0

Sequence: WVDSYYTEL
- Mean fraction #NGS counts mimetic peptide / total count selection ([3]; mean over selections): 0.002879
- Mean fraction #NGS counts mimetic peptide / total count selection ([4]; mean of selections 1-3, phosphomimetic peptide): 0.002589

More lines, main results first:

- Mean fraction #NGS counts mimetic peptide / total count selection ([1]; phosphomimetic peptide): 0.000103
Sequence: RIESLESEV
- Mean fraction #NGS counts mimetic peptide / total count selection [2]: 1.703e-5

- Mean fraction #NGS counts wt peptide / total counts selection [1]: 0.0006987
Sequence: RRESYSTTV
- Mean fraction #NGS counts wt peptide / total counts selection [2]: 0.005493

- Mean fraction #NGS counts wt peptide / total counts selection [1]: 0.00089
Sequence: ERLRVETDV
- Mean fraction #NGS counts wt peptide / total counts selection [2]: 0.0001761
- Mean fraction #NGS counts wt peptide / total counts selection ([4]; mean over selections 1-3): 0.0002834

- Mean fraction #NGS counts mimetic peptide / total count selection [1]: 5.744e-6
Sequence: SSGEQHTNV
- Mean fraction #NGS counts mimetic peptide / total count selection [2]: 0

- Mean fraction #NGS counts wt peptide / total counts selection ([1]; wild type peptide): 0.00571
Sequence: RISSLESEV
- Mean fraction #NGS counts wt peptide / total counts selection [2]: 0.0001168

- Mean fraction #NGS counts wt peptide / total counts selection [1]: 0.0005322
Sequence: VVSERISSV
- Mean fraction #NGS counts wt peptide / total counts selection [3, 6]: 0.003259
- Mean fraction #NGS counts wt peptide / total counts selection ([3]; mean over selections): 0.003259

- Mean fraction #NGS counts wt peptide / total counts selection [5]: 0
Sequence: GSLALLTKL
- Mean fraction #NGS counts wt peptide / total counts selection [2]: 0

- Mean fraction #NGS counts mimetic peptide / total count selection ([1]; phosphomimetic peptide): 0.001492
Sequence: KPERISTVV
- Mean fraction #NGS counts mimetic peptide / total count selection [2]: 0.0005714

- Mean fraction #NGS counts mimetic peptide / total count selection ([1]; phosphomimetic peptide): 0.0002179
- Mean fraction #NGS counts mimetic peptide / total count selection [5]: 1.46e-5
Sequence: EGSYLVTSV

- Mean fraction #NGS counts wt peptide / total counts selection [1]: 0.001066
Sequence: SSGSQHTNV
- Mean fraction #NGS counts wt peptide / total counts selection [2]: 5.9593e-5

- Mean fraction #NGS counts mimetic peptide / total count selection [1]: 0
Sequence: YPGEPDEWV
- Mean fraction #NGS counts mimetic peptide / total count selection [2]: 0.01439

- Mean fraction #NGS counts wt peptide / total counts selection [1]: 0.003213
Sequence: KLSSIESDV
- Mean fraction #NGS counts wt peptide / total counts selection [2]: 2.936e-5
- Mean fraction #NGS counts wt peptide / total counts selection ([4]; mean over selections 1-3): 0.0003618

- Mean fraction #NGS counts mimetic peptide / total count selection [1]: 0.0004709
Sequence: VVSERISEV
- Mean fraction #NGS counts mimetic peptide / total count selection ([3]; mean over selections): 0.0003798

- Mean fraction #NGS counts mimetic peptide / total count selection [1]: 0
Sequence: ERLRVEEDV
- Mean fraction #NGS counts mimetic peptide / total count selection [2]: 0
- Mean fraction #NGS counts mimetic peptide / total count selection ([4]; mean over selections 1-3): 0
